The target of one data set is T1, Dyrk1A (Homo sapiens, UniProt Q13627).
T1 construct: encoding the catalytic domain of human Dyrk1A; thrombin cleavage site (N); made in house; host or cells: Escherichia coli BL21(DE3) with pRARE
Briefly: Dyrk1A kinase assay (32P-ATP, Woodtide). It is filed as biochemical. The settings on record: for inhibition at 5 µM: read-out: percentage of inhibition Dyrk1A; for IC50: 100 µM ATP; for inhibition at 5 µM / percentage of inhibition Dyrk1A: at 5 µM.

Another data set deals with T2, Dyrk1B (Homo sapiens, UniProt Q9Y463).
T2 construct: purchased Life Technologies PV4649 (LOT # 877059G)
T2 sequence (Q9Y463 whole entry): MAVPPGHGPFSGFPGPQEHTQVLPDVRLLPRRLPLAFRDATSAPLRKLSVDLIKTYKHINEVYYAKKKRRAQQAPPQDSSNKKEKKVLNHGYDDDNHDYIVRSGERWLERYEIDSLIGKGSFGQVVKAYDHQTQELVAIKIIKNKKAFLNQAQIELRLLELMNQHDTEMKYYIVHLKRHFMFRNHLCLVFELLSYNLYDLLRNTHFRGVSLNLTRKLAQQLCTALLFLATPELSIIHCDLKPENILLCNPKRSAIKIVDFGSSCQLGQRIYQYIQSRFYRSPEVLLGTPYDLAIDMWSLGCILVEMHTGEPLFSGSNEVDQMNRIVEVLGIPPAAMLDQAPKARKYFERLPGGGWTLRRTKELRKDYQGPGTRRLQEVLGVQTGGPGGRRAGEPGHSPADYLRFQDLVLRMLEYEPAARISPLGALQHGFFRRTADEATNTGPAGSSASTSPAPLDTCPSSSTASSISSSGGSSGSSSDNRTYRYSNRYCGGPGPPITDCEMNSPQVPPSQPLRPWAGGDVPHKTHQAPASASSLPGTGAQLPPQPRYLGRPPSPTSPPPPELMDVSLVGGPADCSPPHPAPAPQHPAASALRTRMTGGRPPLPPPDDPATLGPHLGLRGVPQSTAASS
The data set can be described thus: Dyrk1B kinase assay (32P-ATP, Woodtide). The class given is biochemical. The settings on record: for IC50: 100 µM ATP; for inhibition at 5 µM / inhibition at 1 µM: read-out: percentage of inhibition Dyrk1B; for inhibition at 5 µM / percentage of inhibition Dyrk1B: at 5 µM.

The target in a further data set is T3, Dyrk2 (Homo sapiens, UniProt Q92630).
T3 construct: made in house; host or cells: Escherichia coli BL21(DE3) with pRARE; plasmid pGEX-2TK-Dyrk2 (gift from W. Becker, Aachen)
T3 sequence (Q92630 1-601): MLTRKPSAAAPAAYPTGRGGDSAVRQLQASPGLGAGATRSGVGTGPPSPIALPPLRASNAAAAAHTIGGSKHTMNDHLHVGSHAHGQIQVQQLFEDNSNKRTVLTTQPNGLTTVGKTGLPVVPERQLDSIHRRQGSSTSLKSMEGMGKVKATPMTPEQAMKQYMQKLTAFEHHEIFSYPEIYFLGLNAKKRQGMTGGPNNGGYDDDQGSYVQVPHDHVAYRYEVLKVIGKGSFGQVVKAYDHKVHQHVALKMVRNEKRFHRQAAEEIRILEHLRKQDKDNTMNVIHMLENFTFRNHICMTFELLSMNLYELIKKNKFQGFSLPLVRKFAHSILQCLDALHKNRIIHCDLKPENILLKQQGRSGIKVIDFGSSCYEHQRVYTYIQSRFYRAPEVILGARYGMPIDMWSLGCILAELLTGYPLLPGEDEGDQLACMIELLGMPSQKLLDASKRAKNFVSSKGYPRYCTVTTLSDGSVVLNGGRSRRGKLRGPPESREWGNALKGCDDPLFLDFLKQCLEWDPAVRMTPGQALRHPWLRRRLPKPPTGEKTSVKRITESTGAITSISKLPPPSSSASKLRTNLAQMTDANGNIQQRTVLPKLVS
The data set can be described thus: Dyrk2 kinase assay (32P-ATP, Woodtide). The class given is biochemical. The settings on record: for IC50: 100 µM ATP, read-out: IC50 Dyrk2; for inhibition at 5 µM / inhibition at 1 µM: read-out: percentage of inhibition Dyrk2.

The next data set concerns the target T4, CK2α (Homo sapiens, UniProt P68400).
T4 construct: purchased Life Technologies (Invitrogen SelectScreen); Dyrk1A, Dyrk2 and CK2α in-house or gifts
Briefly: CK2α kinase assay (counter screen). The class given is biochemical. The settings on record: read-out: percentage of inhibition CK2α. Here is the method:
Dyrk1A, Dyrk1B, Dyrk2, CK2α and Clk1 kinase reactions were performed in a reaction buffer containing 50 mM Tris/HCl, pH 7.4, 0.1 mM EGTA, 0.5 mM DTT, 10 mM MgCl2, 100 µM ATP and 0.33 µM [γ-^32ATP] as well as the appropriate substrate peptides, which were 100 µM Woodtide for the Dyrk isoforms ([…]-NH2), 60 µM CK2 substrate peptide ([…]-NH2, from Millipore) for CK2α or RS repeat peptide ([…]) for Clk1. The CK2α protein was a kind gift of M. Montenarh (Homburg). The kinase reactions were performed at 30°C for 15 min and terminated by spotting 5 µL of the reaction mixture onto a P81 phosphocellulose membrane (Whatman). The membrane was washed four times with 0.3% phosphoric acid and one time with acetone and dried. The dry membrane was exposed in a cassette to a Phosphor Screen Imaging Plate (FujiFilm) and the signals detected by scanning of the imaging plate in a Fuji FLA-3000 PhosphoImager. The spots were quantified using AIDA software (Raytest, Version 3.52) to determine the activities of the kinases in the assay reactions. […] IC50 values were calculated by fitting the data with Origin Pro 8.6 (OriginLabs). The calculated IC50 values are representative of at least two independent determinations.
On the technique in general: The purpose of a counterscreen is to sort out artefacts and off-target activity.

“And” between values parts separate entries of the source, which are not always exact repeats. Identical values can stand only once.

T4 sequence (P68400 whole entry): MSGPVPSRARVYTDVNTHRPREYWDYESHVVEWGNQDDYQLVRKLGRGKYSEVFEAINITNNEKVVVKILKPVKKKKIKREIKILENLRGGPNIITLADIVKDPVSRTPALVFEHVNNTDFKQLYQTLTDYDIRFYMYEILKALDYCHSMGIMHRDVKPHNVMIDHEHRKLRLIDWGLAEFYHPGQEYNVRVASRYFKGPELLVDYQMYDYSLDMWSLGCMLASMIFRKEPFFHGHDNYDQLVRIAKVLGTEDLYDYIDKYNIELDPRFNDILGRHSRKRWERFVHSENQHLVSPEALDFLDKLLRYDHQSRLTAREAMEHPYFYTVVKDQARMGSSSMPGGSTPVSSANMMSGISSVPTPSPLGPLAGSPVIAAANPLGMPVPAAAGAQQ

As to `Cn1cncc1-c1csc(-c2cccnc2)c1` [Compound 31], the inhibition (usually the change of the read-out against control, counted positive when it falls) at 5 µM at Dyrk1A is 44%. The values for the IC50 against Dyrk1B and at Dyrk2 were 9100 nM and 5100 nM, respectively.

For the compound `Cc1cncc(-c2csc(-c3cnco3)c2)c1` [Compound 35], the results for the IC50 on Dyrk1A, on Dyrk1B and at Dyrk2 were 1200 nM, 1100 nM and 1500 nM, respectively. Further, on CK2α, the inhibition at 5 µM is -15%.

`Cc1cc(O)cc(-c2csc(-c3cccc(O)c3)c2)c1` [Compound 2]: on Dyrk1A, the inhibition at 5 µM worked out at 10%.

`Clc1cncc(-c2csc(-c3cnco3)c2)c1` [Compound 34]: the values for the inhibition at 5 µM at Dyrk1A, at Dyrk1B and on Dyrk2 (at 5 µM) were 0%, 18% and 12%, respectively.

`CSc1ncc(-c2csc(-c3cnco3)c2)cn1` [Compound 37]: the inhibition at 5 µM was determined as 7% at Dyrk1A, 21% at Dyrk1B and 5% at Dyrk2 (at 5 µM).

Take `Cc1cncc(-c2csc(-c3cncnc3)c2)c1` [Compound 43]: the figures for the IC50 against Dyrk1A, at Dyrk1B and at Dyrk2 were 5000 nM, 2200 nM and 3800 nM, respectively. Besides, the inhibition at 5 µM on CK2α is -15%.

In the case of `COc1ccc(-c2csc(-c3cccnc3)c2)cn1` [Compound 9], inhibition against Dyrk1B was half-maximal at 34000 nM (IC50). The “percentage of inhibition Dyrk2” value on Dyrk2 (at 5 µM) is “No inhibition”. The inhibition at 5 µM at CK2α was 0%.

For the compound `c1cncc(-c2cc(-c3ccc4c(c3)CCO4)cs2)c1` [Compound 27], the “percentage of inhibition Dyrk1A” value at Dyrk1A was “No inhibition”. The “percentage of inhibition Dyrk1B” value on Dyrk1B is listed as “No inhibition”. Moreover, the inhibition at 5 µM on Dyrk2 (at 5 µM) was found to be 31%.

On to `c1ccc2c(-c3csc(-c4cnco4)c3)cncc2c1` [Compound 39], for which the inhibition at 5 µM is 20% at Dyrk1A and 19% at Dyrk2 (at 5 µM). Moreover, on Dyrk1B, the IC50 (commonly the point on the concentration scale where inhibition reaches its midpoint) came out at 8070 nM.

Regarding `Fc1cncc(-c2csc(-c3cccnc3)c2)c1` [Compound 15, 3-fluoro-5-[5-(pyridin-3-yl)thiophen-3-yl]pyridine], the melting point (in general, the temperature of the solid-liquid transition) fell in the range of 186 to 187 °C. Also, half-maximal inhibition at Dyrk1A (IC50) was put at 900 nM. On Dyrk1B, this compound registered an IC50 of 1400 nM. For the same compound, the IC50 on Dyrk2 stood at 400 nM. Further, at CK2α, the inhibition at 5 µM is 0%.

As for `FC(F)(F)c1cncc(-c2csc(-c3cccnc3)c2)c1` [Compound 14], the IC50 is 3100 nM against Dyrk1A, 5400 nM against Dyrk1B and 3000 nM on Dyrk2. Also, the inhibition at 5 µM on CK2α is 0%.

As to `c1cncc(-c2cc(-c3cncc4ccccc34)cs2)c1` [Compound 21], the IC50 at Dyrk1A turned out to be 3500 nM; at Dyrk1B it was 3200 nM; at Dyrk2, 2900 nM. Further, the inhibition at 5 µM at CK2α is 6%.

Consider `c1cc2cc(-c3csc(-c4cnco4)c3)ccc2[nH]1` [Compound 40], for which the results for the inhibition at 5 µM on Dyrk1A, at Dyrk1B and on Dyrk2 (at 5 µM) were 18%, 9% and 30%, respectively.

For `c1cncc(-c2csc(-c3cncc4ccccc34)c2)c1` [Compound 47], the IC50 against Dyrk1A is 1500 nM; against Dyrk1B, 2400 nM; at Dyrk2, 1200 nM. Moreover, the inhibition at 5 µM on CK2α amounted to 3%.

With `Cc1cc(-c2csc(-c3cccnc3)c2)ccn1` [Compound 12], the results for the inhibition at 5 µM on Dyrk1A and on Dyrk2 (at 5 µM) were 23% and 37.5%, respectively. Further, at Dyrk1B, the “percentage of inhibition Dyrk1B” value is listed as “No inhibition”.

Consider `N#Cc1cncc(-c2csc(-c3cccnc3)c2)c1` [Compound 13], for which inhibition against Dyrk1A was half-maximal at 2600 nM (IC50). Moreover, the figures for the inhibition at 5 µM on Dyrk1B, at Dyrk2 (at 5 µM) and on CK2α were 30%, 44% and 3%, respectively.

As to `Cc1ccc(-c2csc(-c3cccnc3)c2)cn1` [Compound 7], the IC50 stood at 4700 nM at Dyrk1A, 3400 nM at Dyrk1B and 1600 nM on Dyrk2. The inhibition at 5 µM on CK2α was determined as 0%.

Turning to `Cn1cnc2cc(-c3csc(-c4cccnc4)c3)cnc21` [Compound 24], the inhibition at 5 µM on Dyrk1A came out at 37%; on CK2α it was 7%. Further, at Dyrk1B, the inhibition at 1 µM turned out to be 13%. Further, the IC50 at Dyrk2 is 630 nM and 600 nM.

For `COC(=O)c1cncc(-c2csc(-c3cccnc3)c2)c1` [Compound 18], the IC50 at Dyrk1A amounted to 1200 nM; on Dyrk1B, 1700 nM; on Dyrk2 it was 1500 nM. At CK2α, the inhibition at 5 µM was 14%.

`CCOc1cncc(-c2csc(-c3cccnc3)c2)c1` [Compound 10]: the figures for the inhibition at 5 µM at Dyrk1A and at CK2α were 45% and 0%, respectively. The inhibition at 1 µM came out at 6% on Dyrk1B and 22% on Dyrk2.

As for `Nc1cc(-c2csc(-c3cccnc3)c2)cnc1Cl` [Compound 23], the values for the IC50 against Dyrk1A, against Dyrk1B and at Dyrk2 were 1300 nM, 1400 nM and 300 nM, respectively. In addition, the inhibition at 5 µM on CK2α is 0%.

As to `c1cncc(-c2cc(-c3cncnc3)cs2)c1` [Compound 22], the IC50 was 1800 nM against Dyrk1A, 3500 nM against Dyrk1B and 1800 nM at Dyrk2. Besides, the inhibition at 5 µM at CK2α amounted to 0%.

On to `[O-][n+]1cccc(-c2csc(-c3cccnc3)c2)c1` [Compound 25], for which the inhibition at 5 µM on Dyrk1A was 4%.

As for `c1ccc2c(-c3csc(-c4cncnc4)c3)cncc2c1` [Compound 46], the figures for the inhibition at 5 µM at Dyrk1A, on Dyrk1B and at Dyrk2 (at 5 µM) were 9%, 33% and 15%, respectively.

On to `c1cncc(-c2cc(-c3cscn3)cs2)c1` [Compound 28], for which the inhibition at 5 µM at Dyrk1A was determined as 31%. At Dyrk2, the IC50 was 6700 nM.

Turning to `Cn1ccc(-c2csc(-c3cccnc3)c2)cc1=O` [Compound 26], the “percentage of inhibition Dyrk1A” value on Dyrk1A is reported as “No inhibition”. In addition, at Dyrk1B, the “percentage of inhibition Dyrk1B” value is “No inhibition”. Also, the inhibition at 5 µM on Dyrk2 (at 5 µM) worked out at 27%.

In the case of `c1ncc(-c2cc(-c3cn[nH]c3)cs2)o1` [Compound 38], the values for the concentration for half-maximal inhibition (IC50) against Dyrk1A, at Dyrk1B and on Dyrk2 were 1500 nM, 2200 nM and 1500 nM, respectively. Further, the inhibition at 5 µM at CK2α is -20%.

`c1ncc(-c2csc(-c3cnco3)c2)cn1` [Compound 36]: the inhibition at 5 µM was determined as 25% on Dyrk1A, 40% on Dyrk1B and 16% on Dyrk2 (at 5 µM).

Regarding `CSc1ncc(-c2csc(-c3cncnc3)c2)cn1` [Compound 45], the inhibition at 5 µM on Dyrk1A is 8%; at Dyrk1B it was 20%; at Dyrk2 (at 5 µM), -24%.

As to `c1cncc(-c2cc(-c3cnc4ccccn34)cs2)c1` [Compound 32], the IC50 against Dyrk1A was found to be 2200 nM; against Dyrk1B it was 600 nM; on Dyrk2, 400 nM. Further, the inhibition at 5 µM at CK2α was found to be 0%.

In the case of `c1cncc(-c2cc(-c3cnc4ccccc4c3)cs2)c1` [Compound 20], the 50% inhibitory concentration (IC50) against Dyrk1A is 1100 nM; against Dyrk1B, 900 nM; on Dyrk2, 1800 nM. Also, on CK2α, the inhibition at 5 µM came to 27%.

For `Clc1cncc(-c2csc(-c3cncnc3)c2)c1` [Compound 42], the inhibition at 5 µM was 1% at Dyrk1A, 5% at Dyrk1B and 0% at Dyrk2 (at 5 µM).

As to `Cc1ccncc1-c1csc(-c2cccnc2)c1` [Compound 6], the 50% inhibitory concentration (IC50) on Dyrk1A is 4400 nM; on Dyrk1B, 8000 nM. For the same compound, the inhibition at 1 µM at Dyrk2 stood at 10%. Also, the inhibition at 5 µM at CK2α was 0%.

Take `c1ncc(-c2csc(-c3cncnc3)c2)cn1` [Compound 44]: the inhibition at 5 µM on Dyrk1A was found to be 2%; on Dyrk1B, 27%; at Dyrk2 (at 5 µM) it was 27%.

For `Clc1cncc(-c2csc(-c3cccnc3)c2)c1` [Compound 16], the IC50 against Dyrk1A came out at 1200 nM; on Dyrk1B, 1900 nM; at Dyrk2, 700 nM. In addition, the inhibition at 5 µM at CK2α turned out to be 14%.

On Dyrk1A, `Cc1cc(-c2csc(-c3cccc(O)c3)c2)ccc1O` [Compound 1] gave an IC50 of 2000 nM. For the same compound, on CK2α, the inhibition at 5 µM worked out at 15%.

Source of the values: article PMC3968014, “Design and Synthesis of a Library of Lead-Like 2,4-Bisheterocyclic Substituted Thiophenes as Selective Dyrk/Clk Inhibitors” (PLoS ONE, 2014).
